Test results as given in patent US8114589B2, “Self-addressable self-assembling microelectronic integrated systems, component devices, mechanisms, methods, and procedures for molecular biological analysis and diagnostics” (Gamida For Life B.V., priority 1996, dated 2012).
Like-named read-outs stand apart in the source and are kept apart here. {Amino} = amino group added with ABI Aminolink 2 reagent, used to attach Texas Red

Assays:
Ras-G = experiment: Ras-12 single point mutation hybridization with 15-mer probes; format: binding
Source text: In the Ras-12 example, 15-mer point mutation specific probes were electronically hybridized to 30-mer target sequences attached to the microlocations on test devices. The polarity at the microlocations was biased negative, and the hybrids were subjected to constant current for a given time, providing a defined power level which denatures the mis-match without affecting the perfect match.
Test devices were fabricated from microcapillary tubes as described previously in the specification. Attachment sequences Ras-G and Ras-T were periodate oxidized and covalently bound to the addressed microlocations.
Ras-G microlocation were then hybridized with Ras-1, Ras-2 or Ras-3. Ras-1 is the perfect match to Ras-G. Ras-2 is a one base pair mismatch (G-A). Ras-3 is a two base pair mismatch (G-A and G-T). The G-A mis-match produces the least destabilization to the DNA duplex, and is therefore the most difficult to distinquish from the perfect match.
Conventional hybridization was first carried out and the microlocations were examined fluorescently to measure to what extent complementary sequences were hybridized. The test devices (microcapillaries) were re-mounted and electronic hybridization was then carried out. […] The procedure and results are shown below: […]

ET-10AL capture sequence = experiment: Electronically controlled fluorescent DNA/dye (ethidium bromide) detection; format: binding; conditions: peak ethidium bromide fluorescence after positive bias 0.05 mA, 0.03 Volt-Hours; capture ET-10AL
Method: Microcapillary test devices were prepared and hybridized as described in Example 2 and 3. Ethidium bromide (EB) was added to the buffer solution (˜0.05 mM EB final concentration) and the test devices were biased negative to concentrate EB (positively charged) at both the hybridized and un-hybridized microlocations. The test devices were observed by epifluorescece microscopy at 550 nm excitation and 600 nm emission.
The test devices were re-mounted biased positive
constant current at 0.05 mA for 0.03 Volt-Hours, to selectively remove the EB. Fluorescence at the un-hybridized microlocations diminished while the hybridized microlocations retained a very high level of EB fluorescence. The results are given below:
Fluorescent signal was measured using an ICCD imaging

[1] = Conductivity measurements of transport buffers; format: physicochemical; conditions: for Average/Std. Deviation / Measurement 1 / Measurement 2 / Measurement 3: conductivity
[2] = system: btr-RCA5 fluorescent DNA probe; experiment: Fluorescent DNA checkerboard addressing; conditions: bias reversed every 6 seconds, 80 micron microlocations
[3] = Buffer conductivity and pH measurements; format: physicochemical; set-up: conductivity: unit not given here; conditions: for conductivity: RT; for pH: in water at room temperature
Method: Buffer Conductivity and pH Measurements—The conductivities of test buffer solutions utilized for transport and hybridization were measured at RT using an Accumet 1.0 cm^−1 glass conductivity cell connected to an Accumet Model 50 pH/Ion/Conductivity meter (Fisher Scientific). Buffer pH values were obtained using an Accu-pHast variable temperature combination electrode and the same model meter.

DNA = DNA transport (accumulation) on the APEX chip; conditions: in words, same field conditions
[4] = system: target DNA to the specific capture DNA; experiment: DNA hybridization sensitivity on the APEX chip; conditions: normal DNA
[5] = system: btrRCA5 to ATA5 capture oligonucleotide; experiment: Accumulation and electronic hybridization in test buffers; conditions: for support of sequence specific electronic hybridization: in words
Method: Microelectronic Chips, Permeation Layer and Instrumentation—These have been described previously with the following exception. The permeation layer employed herein has an underlayer of agarose beneath the top streptavidin-containing agarose layer (approximately one micron in total thickness). To make the underlayer, […] glyoxal agarose (2%) was spun on at 2000 rpms for 20 sec prior to the application of the streptavidin-agarose layer. In brief, the 5580 series APEX chip used for these experiments consists of a 5×5 array of […] circular microelectrodes with […] microelectrodes at each corner of the array. Chips were mounted on a micromanipulator stage and the microelectrodes activated by a power supply and appropriately controlled relay switches. Fluorescently labeled oligonucleotides on the chip were visualized using oblique illumination with two 594 nm HeNe lasers and the images were quantified using either NIH Image or IPLab Spectrum software packages.
Accumulation and Hybridization—Two biotinylated capture oligonucleotides, ATA5 and ATA4 were electronically transported and localized at adjacent microelectrodes. The solution was removed and the chip washed 3-4× in test buffer. Buffers employed in these studies are listed in Table 3 and were utilized at the listed pH values and concentrations presented.
The L-isomers of amino acids were used, unless otherwise noted. The chip was equilibrated in test buffer for 5-10 min. Then fresh buffer containing 10 nM BODIPY-Texas Red labeled RCA5 (btrRCA5), an oligonucleotide complementary to ATA5 but not ATA4 (RS paper) was applied.
The […] microelectrodes were employed as cathodes and one microelectrode within the array used as the corresponding anode. Accumulation was assessed by sourcing a 500 nA constant current to individual microelectrodes for 30 sec and monitoring the accumulation of fluorescence at the positively-biased (anode) site in the microelectrode array. Signal arising from non-fluorescent sources (ie. thermal noise, etc.) was subtracted. Experiments examining the effect of different currents upon signal accumulation were conducted in a similar fashion except that the applied current varied from 100 nA to 1 mA. […] For the comparison between conductivities of various buffers, the data is presented as fold increase over initial fluorescence to account for chip-to-chip variation as well as laser illumination variations in signal levels. For other experiments, the data is presented as attomol product versus time, after converting^2 the observed fluorescence intensity to moles of labeled oligonucleotide.
Following accumulation at one microelectrode location, the buffer was removed and fresh buffer containing btrRCA5 applied. An adjacent microelectrode was then sourced in a similar fashion. Upon completion, the buffer was removed and the chip washed 5-7× with test buffer without btrRCA5. The pair of previously targeted microelectrodes were then illuminated and the fluorescence present at each site quantified. Control experiments utilized a bodipy-Texas Red labeled oligonucleotide complementary to ATA4 to verify the integrity and concentration of the ATA4 capture oligonucleotide. Percent hybridization efficiency was calculated as follows: (complementary oligonucleotide signal−noncomplementary signal)/(signal present immediately prior to the end of the applied current)×100.

[6] = cited from earlier work; for pK1 / pK2 / pK3: Table 2
[7] = Buffer capacity, pH and conductivity of buffers used on the APEX chip; conditions: for PH: NaPO4: 20 mM adjusted to pH 7.4
[8] = biological target: streptavidin/biotin DNA probe (Streptomyces avidinii, UniProt P22629); experiment: Streptavidin/biotin DNA probe capture affinity on the APEX chip; format: binding
Sequence of streptavidin/biotin DNA probe (P22629 25-183, species assumed): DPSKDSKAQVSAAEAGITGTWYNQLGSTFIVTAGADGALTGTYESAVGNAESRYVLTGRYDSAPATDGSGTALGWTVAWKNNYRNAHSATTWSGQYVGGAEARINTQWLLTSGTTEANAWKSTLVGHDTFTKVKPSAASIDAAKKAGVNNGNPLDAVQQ

[9] = system: Reporter DNA to DNA1 or PNA1 capture; experiment: Hybridization of phosphodiester-linked oligonucleotides versus PNA analogues; conditions: 200 nA versus 500 nA
[10] = for pH above the surface of the permeation layer: not told
btrRCA5 to ATA5 [11] = experiment: Passive hybridization at different pHs
Source text: Passive Hybridization at Different pHs—Biotinylated ATA5 and ATA4 were electronically targeted to adjacent sites upon streptavidin/agarose coated microarrays. […] A parallel hybridization was done in 6×SSC. After this hybridization period, the chips were washed in 0.2×STE, 0.1% sodium dodecyl sulfate, as above and the remaining fluorescence at each site quantitated. Fluorescence values present at ATA4 sites were subtracted from adjacent ATA5 sites and the remaining fluorescence converted to attomol btrRCA5 specifically hybridized. Additional experiments repeated this methodology and also examined buffer adjusted with concentrated acetic acid (at the pI and at pH 6 and 5).

btrRCA5 to ATA5 [12] = experiment: Passive hybridization versus electric field hybridization; conditions: 50 mM
Method: Passive Hybridization versus Electric Field Hybridization—ATA5 was electrically targeted to the first four columns of the microarray on streptavidin/agarose coated chips prepared as above, and ATA4 was targeted to the remaining column. For passive hybridization, either 5.0 nM or 0.5 nM btrRCA5 in 5×SSC (1×=0.15 M NaCl, 15 mM sodium citrate, pH 7.0) was applied for 1 min, then the chips were washed 6× in buffer and imaged. For the 3 min timepoint, fresh buffer containing btrRCA5 was applied and incubated for an additional 2 min to achieve 3 min cumulative incubation time. This approach was repeated for the remaining time points. […] Five sites, 4 with ATA5 previously attached and 1 with ATA4, were electronically targeted using 3.1 V total, (approximately 500 nA/site). […] In both passive and electric field mediated hybridization, the background signal present at the ATA4 sites was subtracted from the signal present at ATA5 sites.

What does the source list for “3′-CC-GCG-GCC-GCC-ACA-C-5′-(TR) (DNA CCGCGGCCGCCACAC; TR label, further chemistry not given here; listed 3' to 5') [Ras-1]”?
signal ratio of perfect match (Ras-G/Ras-1) to 1 bp mis-match (Ras-G/Ras-2) (Ras-G; conventional hybridization, 5×SSC 15 minutes 40° C., washes): about 10 to 1; signal ratio of perfect match (Ras-G/Ras-1) to 1 bp mis-match (Ras-G/Ras-2) (Ras-G; electronic stringency control, 0.15 mA at 150 V for 4 minutes, 20° C.): > 100 to 1

For “5′-Amino-CCT GCT CAT GAG TCT CTC (DNA CCTGCTCATGAGTCTCTC; DNA, 5' {Amino}, backbone not given here; further chemistry not fully specified) [ET-11AL]”, which “Normalized Signal” value (ET-10AL capture sequence) is on record?
Its value is over 200.

With “5′-Amino-TGCGAGCTGCAGTCAGACAT (DNA TGCGAGCTGCAGTCAGACAT; DNA, 5' {Amino}, backbone not given here; further chemistry not fully specified) [ET-21A]” as the compound, how does the “Normalized Signal” value (ET-10AL capture sequence) read?
Its value is 1.

Which “Average/Std. Deviation” value [1] does the source give for O=S(=O)(O)CCN1CCN(CCO)CC1 [250 mM HEPES, HEPES] here?
The value was 147.6 +/− 9.07 μS/cm.

And the “Measurement 1” value [1]?
The value was 141 μS/cm.

And the “Measurement 2” value [1]?
Its value is 144 μS/cm.

And the “Measurement 3” value [1]?
The value was 158 μS/cm.

And the “Average/Std. Deviation” value ([1]; listed as 25 mM HEPES)?
Its value is 9.7 +/− 0.71 μS/cm.

What about the “Measurement 1” value ([1]; listed as 25 mM HEPES) of the same compound?
Its value is 9.16 μS/cm.

What about the “Measurement 2” value ([1]; listed as 25 mM HEPES) of the same compound?
The value was 9.44 μS/cm.

What about the “Measurement 3” value ([1]; listed as 25 mM HEPES) of the same compound?
Its value is 10.5 μS/cm.

And the “checkerboard addressing and concentration of fluorescent DNA probe” value [2]?
The value was “Rapid (6 second) checkerboard addressing and concentration of the btr-RCA5 fluorescent DNA probe was demonstrated”.

Which conductivity [1] does the source give for N[C@@H](CS)C(=O)O [Cysteine] here?
Its conductivity is about 23 μS/cm.

And the “Average/Std. Deviation” value [1]?
Its value is 22.7 +/− 5.09 μS/cm.

What about the “Measurement 1” value [1] of the same compound?
Its value is 27.4 μS/cm.

And the “Measurement 2” value [1]?
Its value is 17.3 μS/cm.

And the “Measurement 3” value [1]?
Its value is 23.5 μS/cm.

What about the conductivity ([3]; 50 mM) of the same compound?
Its conductivity is 9.0 +/− 0.9.

And the pH ([3]; 50 mM)?
The pH was 5.08.

And the conductivity ([3]; 250 mM)?
Its conductivity is 21.8 +/− 4.4.

And the transport (DNA)?
Its transport is “excellent transport”.

What about the “Hybridization Sensitivity of DNA” value [4] of the same compound?
The value was 7.5×10^10 targets.

What about the “support of sequence specific electronic hybridization” value [5] of the same compound?
Its value is “difficult to evaluate because of poor signal accumulation”.

What about the pK1 [6] of the same compound?
Its pK1 is “pK1 - 1.7”.

What about the pK2 [6] of the same compound?
Its pK2 is “pK2 - 8.3”.

What about the pK3 [6] of the same compound?
The pK3 was “pK3 - 10.8”.

And the pl ([6]; Table 3)?
Its pl is 5.02.

And the pI [6]?
The pI was 5.02.

What about the conductivity [7] of the same compound?
The conductivity was 25.0 μS.

What about the PH [7] of the same compound?
The PH was 5.2.

For N[C@@H](Cc1c[nH]cn1)C(=O)O [Histidine], which transport (DNA) is on record?
The transport was “good transport”.

And the “SA-Biotin T12 Sensitivity” value [8]?
The value was 3 × 10^6.

What about the “Hybridization Sensitivity of DNA” value [4] of the same compound?
The value was 3×10^6 targets.

What about the “support of sequence specific electronic hybridization” value [5] of the same compound?
Its value is “demonstrated specific hybridization”.

What about the “DNA:DNA hybridization” value [9] of the same compound?
Its value is “only occurs well at 500 nA”.

And the “PNA:DNA hybridization” value [9]?
Its value is “occurs at roughly equal efficiencies at either current”.

What about the “pH of the solution” value ([10]; 200 nA) of the same compound?
The value was over 6.

What about the “pH of the solution” value ([10]; 500 nA) of the same compound?
The value was over 5.

And the “pH above the surface of the permeation layer” value [10]?
The value was over 5.

What about the pK1 [6] of the same compound?
The pK1 was “pK1 - 1.8”.

And the pK2 [6]?
Its pK2 is “pK2 - 6.0”.

And the pK3 [6]?
Its pK3 is “pK3 - 9.0”.

And the pI [6]?
Its pI is 7.47.

What about the passive hybridization (btrRCA5 to ATA5 [11]; at its pI (pH 7.5), 50 mM) of the same compound?
Its passive hybridization is “does not facilitate hybridization”.

What about the passive hybridization (btrRCA5 to ATA5 [11]; pH 6.0 and 5.0, 50 mM) of the same compound?
Its passive hybridization is “accelerated hybridization”.

And the “hybridization in the absence of an applied electric field” value (btrRCA5 to ATA5 [12])?
Its value is “No hybridization was observed”.

And the conductivity [7]?
Its conductivity is 212.0 μS.

And the PH [7]?
Its PH is 7.6.

And the conductivity ([7]; hi purity)?
Its conductivity is 172.0 μS.

With NCCCC[C@H](N)C(=O)O [Lysine] as the compound, how does the transport (DNA) read?
The transport was “fair transport”.

And the “SA-Biotin T12 Sensitivity” value [8]?
The value was >7.5 × 10^10.

And the pK1 [6]?
The pK1 was “pK1 - 2.2”.

What about the pK2 [6] of the same compound?
Its pK2 is “pK2 - 8.9”.

And the pK3 [6]?
The pK3 was “pK3 - 10.3”.

And the pI [6]?
The pI was 9.74.

And the conductivity [7]?
Its conductivity is 477.0 μS.

And the PH [7]?
The PH was 9.6.

For c1c[nH]cn1 [imidazole], which conductivity ([3]; 50 mM) is on record?
Its conductivity is 17.6 +/− 1.6.

And the pH ([3]; 50 mM)?
Its pH is 9.08.

What about the hybridization efficiency ([5]; [(specific hybridization)/(transported)] × 100) of the same compound?
Its hybridization efficiency is 4.0.

What about the transported ([5]; fluorescent signal at completion of electronic targeting, value +/− SEM, 50 mM buffer) of the same compound?
Its transported is 528 +/− 63.

And the specific hybridization ([5]; value +/− SEM, 50 mM buffer)?
The specific hybridization was 21.2 +/− 6.6 attomol.

And the “pH above the surface of the permeation layer” value [10]?
Its value is over 5.
